What all share (assay type): cell-based
One test has as its target T1, PPAR-gamma (Homo sapiens, UniProt P37231).
T1 construct: expressed in transfected cells; host or cells: CV-1 cells
T1 sequence (P37231 238-503 limits assumed): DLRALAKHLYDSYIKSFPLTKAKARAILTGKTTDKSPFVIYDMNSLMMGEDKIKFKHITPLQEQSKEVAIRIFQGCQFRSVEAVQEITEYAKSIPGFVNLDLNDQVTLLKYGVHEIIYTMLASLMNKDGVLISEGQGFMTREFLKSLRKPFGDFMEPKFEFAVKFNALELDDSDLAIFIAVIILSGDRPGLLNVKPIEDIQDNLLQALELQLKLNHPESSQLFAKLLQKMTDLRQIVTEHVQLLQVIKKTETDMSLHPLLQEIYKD
Put plainly: human PPAR-GAL4 chimera luciferase reporter assay in CV-1 cells, PPAR-gamma. To be noted: Table 3, Examples 11-25, read-out: PPAR gamma (EC50). Here is the method:
(§1) The compounds were evaluated in a cell-based assay to determine their human PPAR activity. The plasmids for human PPAR-GAL4 chimeras were prepared by fusing amplified cDNAs encoding the LBDs of PPARs to the C-terminal end of the yeast GAL4 DNA binding domain. CV-1 cells were grown and transiently transected with PerFectin (GTS, San Diego, Calif.) according to the manufacturer's protocol along with a luciferase reporter. Eight hours after transfection, 50 μl of cells were replated into 384 well plates ([…]). Sixteen hours after replating, cells were treated with either compounds or 1% DMSO for 24 hours. Luciferase activity was then assayed with Britelite (Perkin Elmer) following the manufacturer's protocol and measured with either the Perkin Elmer Viewlux or Molecular Devices Acquest.
(§2) Compounds may be screened for functional potency in transient transfection assays in CV-1 cells for their ability to activate the PPAR subtypes (transactivation assay). A previously established chimeric receptor system was utilized to allow comparison of the relative transcriptional activity of the receptor subtypes on the same synthetic response element and to prevent endogenous receptor activation from complicating the interpretation of results. See, for example, Lehmann, J. M.; Moore, L. B.; Smith-Oliver, T. A; Wilkinson, W. O.; Willson, T. M.; Kliewer, S. A., An antidiabetic thiazolidinedione is a high affinity ligand for peroxisome proliferator-activated receptory γ (PPARγ), J. Biol. Chem., 1995, 270, 12953-6. The ligand binding domains for murine and human PPAR-alpha, PPAR-gamma, and PPAR-delta are each fused to the yeast transcription factor GAL4 DNA binding domain. CV-1 cells were transiently transfected with expression vectors for the respective PPAR chimera along with a reporter construct containing four or five copies of the GAL4 DNA binding site driving expression of luciferase. After 8-16 h, the cells are replated into multi-well assay plates and the media is exchanged to phenol-red free DME medium supplemented with 5% delipidated calf serum. 4 hours after replating, cells were treated with either compounds or 1% DMSO for 20-24 hours. Luciferase activity was then assayed with Britelite (Perkin Elmer) following the manufacturer's protocol and measured with either the Perkin Elmer Viewlux or Molecular Devices Acquest (see, for example, Kliewer, S. A., et. al. Cell 1995, 83, 813-819). Rosiglitazone is used as a positive control in the hPPAR-γ assay. Wy-14643 and GW7647 is used as a positive control in the hPPAR-α assay. GW501516 is used as the positive control in the hPPAR-δ assay.
(In general: In a reporter assay the amount or activity of a reporter protein is the signal.)

Another test deals with T2, PPAR-alpha (Homo sapiens, UniProt Q07869).
T2 construct: expressed in transfected cells; host or cells: CV-1 cells
T2 sequence (Q07869 239-466 limits assumed): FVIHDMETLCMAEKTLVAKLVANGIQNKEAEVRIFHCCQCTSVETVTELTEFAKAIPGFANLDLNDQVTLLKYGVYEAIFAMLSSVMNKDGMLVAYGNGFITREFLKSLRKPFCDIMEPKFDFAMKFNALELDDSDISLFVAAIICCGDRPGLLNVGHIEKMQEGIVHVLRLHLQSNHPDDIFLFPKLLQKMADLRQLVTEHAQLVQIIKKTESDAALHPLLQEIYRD
Description: human PPAR-GAL4 chimera luciferase reporter assay in CV-1 cells, PPAR-alpha. The conditions noted are these: Table 3, Examples 11-25, read-out: PPAR alpha (EC50). The protocol: as §1, §2

The next test addresses T3, PPAR-delta (Homo sapiens, UniProt Q03181).
T3 construct: expressed in transfected cells; host or cells: CV-1 cells
T3 sequence (Q03181 211-439 limits assumed): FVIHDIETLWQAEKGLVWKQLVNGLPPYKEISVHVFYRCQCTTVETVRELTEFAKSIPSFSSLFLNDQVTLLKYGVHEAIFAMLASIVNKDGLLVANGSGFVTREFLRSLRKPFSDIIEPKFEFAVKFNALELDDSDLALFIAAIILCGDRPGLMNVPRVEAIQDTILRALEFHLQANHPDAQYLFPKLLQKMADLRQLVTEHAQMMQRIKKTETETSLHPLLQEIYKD
Put plainly: human PPAR-GAL4 chimera luciferase reporter assay in CV-1 cells, PPAR-delta. To be noted: Table 3, Examples 11-25, read-out: PPAR delta (EC50). The protocol: as §1, §2

A value given as a limit tells only on which side of the number the result lay.

With `Cc1nc(-c2ccc(C(F)(F)F)cc2)sc1CCn1ccc2cc(OC(C)(C)C(=O)O)ccc21` [Example 21, 2-Methyl-2-(1-{2-[4-methyl-2-(4-trifluoromethyl-phenyl)-thiazol-5-yl]-ethyl}-1H-indol-5-yloxy)-propionic acid], the EC50 on PPAR-gamma, at PPAR-alpha and at PPAR-delta was 5 to 100 µM in each case.

With `Cc1nc(-c2ccc(C(F)(F)F)cc2)sc1CCn1ccc2ccc(OCC(=O)O)cc21` [Example 22, (1-{2-[4-Methyl-2-(4-trifluoromethyl-phenyl)-thiazol-5-yl]-ethyl}-1H-indol-6-yloxy)-acetic acid], the EC50 at PPAR-gamma, at PPAR-alpha and on PPAR-delta was 5 to 100 µM each time.

Take `Cc1nc(-c2ccc(C(F)(F)F)cc2)sc1CCn1ccc2ccc(OC(C)(C)C(=O)O)cc21` [Example 23, 2-Methyl-2-(1-{2-[4-methyl-2-(4-trifluoromethyl-phenyl)-thiazol-5-yl]-ethyl}-1H-indol-6-yloxy)-propionic acid]: the results for the EC50 at PPAR-gamma, on PPAR-alpha and at PPAR-delta were 5 to 100 µM, < 5 µM and 5 to 100 µM, respectively.

As for `Cc1nc(-c2ccc(C(F)(F)F)cc2)sc1Cn1cc(CC(=O)O)c2ccccc21` [Example 24, {1-[4-Methyl-2-(4-trifluoromethyl-phenyl)-thiazol-5-ylmethyl]-1H-indol-3-yl}acetic acid], the EC50 on PPAR-gamma was 5 to 100 µM; at PPAR-alpha, 5 to 100 µM; on PPAR-delta, < 5 µM.

As for `Cc1nc(-c2ccc(C(F)(F)F)cc2)sc1CCN1CCc2ccc(OCC(=O)O)cc21` [Example 25, (1-{2-[4-Methyl-2-(4-trifluoromethyl-phenyl)-thiazol-5-yl]-ethyl}-2,3-dihydro-1H-indol-6-yloxy)-acetic acid], the EC50 at PPAR-gamma is 5 to 100 µM; on PPAR-alpha, 5 to 100 µM; on PPAR-delta it was < 5 µM.

(Values after patent US20050203151A1, “Novel compounds, compositions and uses thereof for treatment of metabolic disorders and related conditions” (Kalypsys, Inc., priority 2003, published 2005).)
